Series [1] relates to Alteria, ALTESO P6 (Bayer). In words: Test with pathogenes: tomatoe plants in Hoagland solution with boscalid or boscalid/polymer, infested with fungus. Particulars: for Infestation Rating: Table 3 experiment, untreated = 100%; for Rating (infestation): Table 4 experiment. The series is classed as in vivo. An excerpt:
To test the polymers with the actual pathogenes, tomatoe plants were directly grown in hoagland solution. Hoagland solution consists of the following ingredients 0.25 v % of 1M KNO3 solution in water, 0.1 v % of 1M MgSO4 solution in water, 0.05 v % of 1M KH2PO4 solution in water, 0.25 v % 1M Ca(NO3)2) solution in water, 0.05 v % of a trace solution consisting of 2.86 g/l H3BO3, 1.81 g/l MnCl2*4H2O, 0.22 g/l ZnSO4*7H2O, 0.08 g/l CuSO4*5H2O, 0.016 g/l MoO3 in water, 0.075 v % Sequestrene 138 Fe consisting of 30 g/l sodium ferric ethylenediamine di-(o-hydroxyphenylacetate) in water, 99.225 v % water sterilized and pH adjusted to 6-6.5 with NaOH.
After 16 days the plants were transfered to containers with 240 ml boscalid or boscalid/polymer (the ratio boscalid/polymer is 1:1 per weight) solutions (1.3, 0.43, 0.14 and 0.05 ppm) in Hoagland solution containing 0.8 vol % acetone. 6 days after the ai application the plants were infested with fungus (Alteria, ALTESO P6 (Bayer)). After 5 additional days the infestation was rated (column “Infestation Rating”) and plants that had not been treated with ai were used as reference for 100% infestation.
Two separate experiments were performed. In one test, polymers A and B were tested (see table 3), in the other experiment, polymers C and F were tested (see table 4).

Series [2] can be described thus: Leaf uptake of radioactively marked boscalid applied dropwise to leaves of wheat plants. The note with it: in vivo, 168 h. As to the method: To test the leaf uptake with polymers water/DMF solutions with radioactively marked boscalid (1 μl cold active solution (10000 ppm solution in DMF), 10 μl hot active solution (0.1 ppm in DMF, ˜2000000 counts/μl), 9 μl polymer solution (1000 ppm solution in water) and 80 μl DMF) were applied dropwise to the leaves of a wheat plants (10 drops per leap. After 48 and 168 hours respectively. The leaves were cut off after the respective time and the excess active on the leaf surface eliminated by stripping the leaf with a cellulose acetate film. The leaves were then dissolved with Soluene 350 to determine the absolute amount of active ingredient that was taken up into the plant. As reference the active was applied in water/DMF solution without polymer.

A short description of series [3]: Root uptake test with radioactively marked boscalid, drench of wheat plants in vermiculite. The note with it: in vivo, 120 h. As to the method:
To test the root systemicity of the ai, radioactively marked boscalid (prepared in analogy to EP 0545099 based on ^14C marked pyridin) was used. For the tests wheat plants in vermiculite were drenched with boscalid/polymer solutions in water/acetone mixtures. As reference boscalid solutions in water/acetone mixtures without polymers were used [25 μl cold active solution (10000 ppm stock solution in acetone), 20 μl hot active solution (0.1 ppm in acetone, 1 μl corresponds to ˜22000 Bcq), 25 μl acetone and 25 μl polymer solution (10000 ppm stock solution in water) were mixed and refilled with water to 10 ml. After 48 and 120 hours leafs were cut from the plant and dissolved in Soluene 350 (60-80% toluene, 20-40% dodecyl(dimethyl)(tetradecyl)ammonium hydroxide, 2.5-10% methanol). Afterwards the radioactivity in the plant material was measured. High radioactivity in the plant material corresponds to high active ingredient uptake.

[4] abbreviates: 0.05 ppm active (or polymer/active 1:1).
The mark [5] stands for this setting: 0.14 ppm active (or polymer/active 1:1).
The mark [6] stands for this setting: 0.43 ppm active (or polymer/active 1:1).

For `O=C(Nc1ccccc1-c1ccc(Cl)cc1)c1cccnc1Cl` [Reference without polymer, boscalid], the “Infestation Rating” value in series [1] (setting [4]) stood at 77%; in series [1] (setting [5]), 60%; in series [1] (setting [6]), 13%; in series [1] (1.3 ppm active (or polymer/active 1:1), rated 5 days after infestation), 1%. Further, the “Rating (infestation)” value in series [1] (setting [4]) was 53%; in series [1] (setting [5]), 47%; in series [1] (setting [6]), 17%; in series [1] (1.3 ppm active (or polymer/active 1:1)), 0%. The “Uptake [% applied]” value in series [2] was 1.3 % applied. Moreover, in series [3], the “Uptake (radioactivity in leaf material, active ingredient uptake)” value is 219 Bcq.

The values above are taken from patent publication US9149034B2, “Agrochemical formulations comprising co-polymers based on diisocyanates” (BASF SE, priority 2006, dated 2015).
